For the assay, the system named is psoriasis. The assay can be described thus: Clinical study, efficacy of topical cream in psoriasis patients. The note with it: patient; previously used antipsoriasis drugs. It is filed as in vivo, human. The text has this: The patient started to use a cream according to Example 1 two to four times daily. […] The patient stopped using the spermine cream after about six months.
A patient with psoriasis (knees, elbows and scalp) started to use a cream according to Example 1 daily.
A patient with psoriasis (scalp, auditory canal, hands, elbows, partly in the face and body (psoriasis grade medium on 15% of the body)).

Each structure is given as a SMILES string.

In the case of `CN(Cc1cnc2nc(N)nc(N)c2n1)c1ccc(C(=O)N[C@@H](CCC(=O)O)C(=O)O)cc1` [methotrexate], the “effectiveness of previous treatment” value was “only effective treatment”.

(Values after patent US20100047360A1, “Use Of Polyamines In The Treatment Of Psoriasis” (Bioforskining Pharma AS, priority 2006, published 2010).)
